Experimental findings from paper PMC7044277 (Nature Communications, 2020) are described below.

Holding throughout (format): cell-based
For test [1], the target named is T1, 320 non-olfactory GPCRs (Homo sapiens, UniProt Q8IZF7).
T1 construct: expressed in transfected cells; host or cells: HTLA cells

Test [2] deals with T2, 320 non-olfactory GPCRs (Homo sapiens, UniProt O00421).
T2 construct: expressed in transfected cells; host or cells: HTLA cells

For test [3], the target named is T3, 320 non-olfactory GPCRs (Homo sapiens, UniProt P55085).
T3 construct: expressed in transfected cells; host or cells: HTLA cells
T3 sequence (P55085 26-397): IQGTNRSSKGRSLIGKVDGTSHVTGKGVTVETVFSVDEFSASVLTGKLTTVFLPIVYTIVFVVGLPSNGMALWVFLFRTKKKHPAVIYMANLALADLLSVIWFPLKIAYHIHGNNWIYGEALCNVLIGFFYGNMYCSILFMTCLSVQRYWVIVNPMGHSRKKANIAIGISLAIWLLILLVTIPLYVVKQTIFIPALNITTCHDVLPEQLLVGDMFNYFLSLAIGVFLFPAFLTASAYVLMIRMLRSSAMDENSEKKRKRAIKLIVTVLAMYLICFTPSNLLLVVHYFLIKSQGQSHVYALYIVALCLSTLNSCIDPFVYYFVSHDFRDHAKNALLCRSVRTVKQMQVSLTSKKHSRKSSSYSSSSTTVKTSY

The target in test [4] is T4, 320 non-olfactory GPCRs (Homo sapiens, UniProt P25024).
T4 construct: expressed in transfected cells; host or cells: HTLA cells
T4 sequence (P25024 whole entry): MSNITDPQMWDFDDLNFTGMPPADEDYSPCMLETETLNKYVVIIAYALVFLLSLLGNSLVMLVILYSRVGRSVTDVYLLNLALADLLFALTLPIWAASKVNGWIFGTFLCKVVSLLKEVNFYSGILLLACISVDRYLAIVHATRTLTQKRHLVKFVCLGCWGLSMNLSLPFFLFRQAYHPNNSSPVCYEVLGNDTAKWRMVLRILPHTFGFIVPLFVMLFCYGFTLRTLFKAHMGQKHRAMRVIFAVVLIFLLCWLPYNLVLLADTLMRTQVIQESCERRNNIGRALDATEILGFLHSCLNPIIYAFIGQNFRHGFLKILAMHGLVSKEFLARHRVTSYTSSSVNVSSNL

Several values for one entry are separate records, joined by “and”; a condition that tells them apart may be missing. Identical values can stand only once.
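Further: compound tested at 1 µM final concentration.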

T2 sequence (O00421 whole entry): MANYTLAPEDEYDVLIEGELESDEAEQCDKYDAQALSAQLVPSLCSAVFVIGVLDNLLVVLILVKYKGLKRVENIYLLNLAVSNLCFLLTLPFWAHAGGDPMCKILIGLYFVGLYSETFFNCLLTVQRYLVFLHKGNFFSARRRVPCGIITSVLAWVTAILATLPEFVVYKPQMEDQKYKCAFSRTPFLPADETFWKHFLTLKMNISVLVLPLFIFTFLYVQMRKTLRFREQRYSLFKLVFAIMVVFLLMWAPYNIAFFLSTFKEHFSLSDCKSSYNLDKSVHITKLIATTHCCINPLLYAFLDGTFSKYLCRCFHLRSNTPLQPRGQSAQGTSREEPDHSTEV
T1 sequence (Q8IZF7 whole entry): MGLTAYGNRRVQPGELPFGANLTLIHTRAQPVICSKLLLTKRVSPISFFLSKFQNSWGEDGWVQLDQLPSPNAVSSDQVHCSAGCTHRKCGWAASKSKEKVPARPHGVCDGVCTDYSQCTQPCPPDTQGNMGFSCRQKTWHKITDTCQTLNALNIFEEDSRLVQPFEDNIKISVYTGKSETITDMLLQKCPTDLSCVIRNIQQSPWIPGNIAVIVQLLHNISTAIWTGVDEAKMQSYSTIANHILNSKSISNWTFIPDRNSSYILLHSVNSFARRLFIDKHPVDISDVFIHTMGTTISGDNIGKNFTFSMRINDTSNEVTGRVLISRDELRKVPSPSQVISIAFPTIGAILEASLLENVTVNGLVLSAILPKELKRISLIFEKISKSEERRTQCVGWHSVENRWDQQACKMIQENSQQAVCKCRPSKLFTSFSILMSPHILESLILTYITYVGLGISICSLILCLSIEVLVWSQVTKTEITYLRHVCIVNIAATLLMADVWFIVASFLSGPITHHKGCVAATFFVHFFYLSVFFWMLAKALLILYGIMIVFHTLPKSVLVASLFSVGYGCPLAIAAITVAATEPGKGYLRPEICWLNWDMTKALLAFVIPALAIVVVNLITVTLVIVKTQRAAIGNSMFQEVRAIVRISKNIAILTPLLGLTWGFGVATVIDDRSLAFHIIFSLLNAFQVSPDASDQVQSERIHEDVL

`CCOc1cccc2cc(C(C)NCC3(O)CCCCC3)oc12` (stereo not shown) [O4LE6]: the “Fold of Basal” value was 0.7426 and 0.9005 and 0.7298 and 0.9165 on 320 non-olfactory GPCRs [1]; 1.0982 and 0.8519 and 0.828 and 1.211 on 320 non-olfactory GPCRs [2]; 0.6754 and 1.05 and 1.156 and 0.8918 at 320 non-olfactory GPCRs [3]; 1.143 and 1.163 and 1.159 and 1.512 on 320 non-olfactory GPCRs [4].
